Experimental data reported in patent US9173842B2, “Stable pharmaceutical composition comprising a hydrosoluble vinflunine salt” (PIERRE FABRE MEDICAMENT, priority 2007, dated 2015).

Assay: Stability tests at 5° C. and 25° C. under sealed conditions after 3 months (impurity content)
Assay type: physicochemical
Conditions: sealed packaging, % of the total weight of the composition
Description: The composition in the forms of capsule A and B were packaged in sealed packers. They were stored for 3 months at 5° C. at an external humidity level of 20%, or at 25° C. at an external humidity level of 60%.
The weight content in impurities (in % of the total weight of the composition) was assayed immediately […], then after 3 months of storage. The difference between these two percentages gives the change in impurity content.
It is compared to that obtained for freeze-dried vinflunine ditartrate stored under the same conditions.

vinflunine ditartrate
Changes in impurity levels at 5° C. (3 months at 5° C., external humidity 20%): +0.8% | Changes in impurity levels at 25° C. (3 months at 25° C., external humidity 60%): +1.9%
